Source: PubChem BioAssay (NCI)
Several values for one entry are separate records, joined by “and”; a condition that tells them apart may be missing. Equal values may be shown once.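 All cell lines were grown in 96-well plates and treated with compound for 48 hours. The concentration for 50% growth inhibition is given as GI50. TGI is the concentration that stops growth completely.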

Assays:
Assay in all cases: growth of human tumour cells (NCI), 48 h
[1] = system: A498 renal
[2] = system: CAKI-1 renal
[3] = system: HCT-116 colon
[4] = system: IGROV1 ovarian
[5] = system: NCI-H226 lung
[6] = system: OVCAR-5 ovarian
[7] = system: SF-539 CNS
[8] = system: SNB-75 CNS
[9] = system: UACC-257 melanoma
[10] = system: BT-549 breast

Compound	TGI [1]	TGI [2]	TGI [3]	TGI [4]	TGI [5]	TGI [6]	TGI [7]	TGI [8]	TGI [9]	GI50 [1]	GI50 [10] [µM]	TGI [10] [µM]	GI50 [2]	GI50 [3]	GI50 [4] [µM]	GI50 [5]	GI50 [6] [nM]	GI50 [7] [µM]	GI50 [9]	GI50 [8]
CCCCC(C(=O)CCC(=O)Nc1ccc(Cl)c(Cl)c1)C(=O)C(C)C (stereo not drawn)	> 100 µM	> 100 µM	> 100 µM	> 100 µM	> 100 µM	88.8 µM	> 100 µM	75 µM	> 100 µM											
CCCCCCCCCCCC(=O)N1CCN(C(C)=O)CC1	> 100 µM	38.9 µM	63.4 µM	42.5 µM	77.3 µM	48.5 µM	32.4 µM		36.9 µM	62700 nM	24.6	58.1	19900 nM	22500 nM	18.8	27900 nM	21200	18	19400 nM	
COc1cc(-c2oc3c(OC)cc(OC)c(O)c3c(=O)c2OC)cc(OC)c1OC		> 100 µM	> 100 µM	> 100 µM	> 100 µM	> 100 µM	> 100 µM	5.06 µM				> 100								
CC[C@@]1(O)C(=O)OCc2c1cc1n(c2=O)Cc2cc3cccc([N+](=O)[O-])c3nc2-1	5.03 µM		13.6 µM	14.9 µM	6.49 µM	28.4 µM	2.89 µM	7.85 µM	36.9 µM	1430 nM				1580 nM	1.96	552 nM	1550	0.478	2810 nM	879 nM
Cc1cc(C)n(-c2ccnc3cc(Cl)ccc23)n1	> 100 µM		> 100 µM	> 100 µM	> 100 µM	> 100 µM	> 100 µM	> 100 µM	> 100 µM											
COc1ccc2cc(C(=O)/C=C/c3ccc(N(C)C)cc3)ccc2c1		> 100 µM	> 100 µM	> 100 µM				> 100 µM	> 100 µM		39.5	> 100	67500 nM	> 100000 nM	47.8				36700 nM	> 100000 nM
Clc1ccc(Nc2ccnc(N3CCN(c4ccnc5cc(Cl)ccc45)CC3)n2)cc1	6.91 µM	15.6 µM	6.38 µM	> 100 µM	23.4 µM			7.29 µM	13.5 µM	603 nM	2.13	6.92	2470 nM	1990 nM	3.82	3960 nM			3050 nM	1790 nM
COc1cc(O)c2c(c1)O[C@@H]1OCC[C@H]21	> 100 µM		> 100 µM	> 100 µM	> 100 µM	> 100 µM	> 100 µM	> 100 µM	> 100 µM											
COc1ccc(NC(=O)CC/C(CC(=O)c2ccco2)=N/NC(N)=S)cc1	> 100 µM	> 100 µM	> 100 µM	> 100 µM	> 100 µM	> 100 µM	> 100 µM		> 100 µM											
COC(=O)c1ccccc1N1C(=O)Cc2ccccc2C1=O				> 100 µM	> 100 µM	> 100 µM	> 100 µM	74 µM	> 100 µM											
CC1(Br)CC2OC3(Br)C=CC(C)(O)C2(CC1=O)C3(C)C (stereo not drawn)	> 100 µM	> 100 µM	> 100 µM	> 100 µM	> 100 µM	> 100 µM	> 100 µM	> 100 µM	> 100 µM											
N#Cc1c(N)n2c(nc1=Nc1ccc(Cl)cc1)sc1cc(Cl)ccc12	9.62 µM	> 100 µM	> 100 µM	> 100 µM	9 µM		> 100 µM	> 100 µM	> 100 µM	5240 nM and 1200 nM	24.8	> 100	22400 nM	6120 nM	> 100	6710 nM and 2390 nM		8.7	> 100000 nM	5070 nM
COc1ccc(Sc2nc3cc(N)cc(N)c3nc2-c2ccccc2)cc1	> 100 µM	> 100 µM	> 100 µM			> 100 µM	> 100 µM		> 100 µM	> 100000 nM			9710 nM	14700 nM			> 100000	10	43200 nM	
CCCNCC(=O)O[C@]1(CC)C(=O)OCc2c1cc1n(c2=O)Cc2cc3ccccc3nc2-1	0.849 µM			4.68 µM	0.331 µM	3.96 µM	0.136 µM	0.537 µM	1.88 µM											
O=C1NC2C(=CC(O)C(O)C2O)c2cc3c(cc21)OCO3 (stereo not drawn)	3.64 µM and 2.69 µM	1.7 µM and 1.8 µM	1.18 µM and 2.77 µM	9.21 µM and 3.01 µM	4.46 µM and 2.34 µM	4.14 µM and 11.4 µM	1.41 µM and 1.85 µM	0.953 µM and 4.31 µM and 4 µM	2.83 µM and 2.86 µM	904 nM and 568 nM			331 nM and 158 nM	282 nM and 101 nM	0.393	598 nM and 388 nM	802	0.237	470 nM and 304 nM	165 nM and 291 nM
CN(C)CCCCC(C(=O)CBr)(c1ccccc1)c1ccccc1		2.84 µM		15.6 µM	8.39 µM	10.9 µM	6.84 µM	13.9 µM	6.59 µM		1.48	3.47	1420 nM		3.6	2380 nM	3060	2.57	1960 nM	1870 nM
C=C1C(=O)O[C@H]2[C@H]1CC/C(C=Nc1c(N)cc(C(F)(F)F)cc1C(F)(F)F)=C\CC[C@@]1(C)O[C@@H]21	3.51 µM	2.98 µM	2.52 µM		4.11 µM	4.59 µM		15.4 µM	3.14 µM	1490 nM	1.47	3.17	1490 nM	1060 nM		1430 nM	1870		1590 nM	1780 nM
NC(N)=NC(N)=Nc1cnccn1	> 100 µM	> 100 µM	> 100 µM	> 100 µM	> 100 µM		> 100 µM	> 100 µM	> 100 µM											
